Results published in patent US11028095B2, “Spiro-lactam and bis-spiro-lactam NMDA receptor modulators and uses thereof” (Aptinyx Inc., priority 2016, dated 2021).

Experiments:
[1] = system: positive (hedonic) 50-kHz ultrasonic vocalizations (USVs); experiment: Positive Emotional Learning (PEL) test; format: in vivo; details: rat, PO, dose 0.001-1 mg/kg, one hour after administration
Summary of the method: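 Rats received test compound or vehicle (0.5% carboxymethyl cellulose in saline) 1 h before 3 min of experimenter-delivered rough-and-tumble play in alternating 15 s play and no-stimulation blocks. Frequency-modulated 50-kHz USVs during no-stimulation (CS) periods were counted; animals not habituated beforehand.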

[2] = Oral pharmacokinetics (plasma, brain, CSF); format: in vivo; details: Sprague Dawley rats, per os, 10 mg/kg
Experimental: In another experiment, Sprague Dawley rats were dosed per os using a normal saline formulation containing 10 mg/kg of the compounds identified in the table below. Plasma, brain, and CSF samples were analyzed at various time points over a 24 hour period. The table below summarizes the results of the oral pharmacokinetics.

[3] = Plasma stability (Human); format: in vitro ADME
Experimental: (§1) Plasma stability of disclosed compounds was investigated. The following table indicates the percent of compound remaining after 60 minutes.

[4] = Plasma stability (Rat); format: in vitro ADME
Experimental: as §1

[5] = Microsomal stability (Rat); format: in vitro ADME; details: rat microsomes
Experimental: (§2) Microsomal stability of disclosed compounds was investigated. The following table indicates the percent of compound remaining after 60 minutes.

[6] = target: T1, NMDAR2D expressing HEK cell membranes (Homo sapiens, UniProt O15399+Q05586); experiment: NMDAR agonist assay, [3H]MK-801 binding, NMDAR2D; format: biochemical
T1 construct: expressed in transfected cells; host or cells: HEK cells (membrane extract)
Experimental: (§3) (nonequilibrium conditions).
(§4) The baseline value was determined from the best fit curve of the DPM values modeled using the GraphPad program and the log(agonist) vs. response(three parameters) algorithm was then subtracted from all points in the dataset.

[7] = target: T2, NMDAR2C expressing HEK cell membranes (Homo sapiens, UniProt Q05586+Q14957); experiment: NMDAR agonist assay, [3H]MK-801 binding, NMDAR2C; format: biochemical
T2 construct: expressed in transfected cells; host or cells: HEK cells (membrane extract)
Experimental: as §3, §4

[8] = Microsomal stability (Human); format: in vitro ADME; details: human microsomes
Experimental: as §2

[9] = target: T3, NMDAR2B expressing HEK cell membranes (Homo sapiens, UniProt Q05586+Q13224); experiment: NMDAR agonist assay, [3H]MK-801 binding, NMDAR2B; format: biochemical
T3 construct: expressed in transfected cells; host or cells: HEK cells (membrane extract)
Experimental: as §3, §4

[10] = IV pharmacokinetics; format: in vivo; details: rat, in vivo, Sprague Dawley rats, 2 mg/kg, normal saline
Experimental: Sprague Dawley rats were dosed intravenously using a normal saline formulation containing 2 mg/kg of the compounds identified in the below table. The table below summarizes the results of the IV pharmacokinetics.

[11] = target: T4, NMDAR2A expressing HEK cell membranes (Homo sapiens, UniProt Q05586+Q12879); experiment: NMDAR agonist assay, [3H]MK-801 binding, NMDAR2A; format: biochemical
T4 construct: expressed in transfected cells; host or cells: HEK cells (membrane extract)
Experimental: as §3, §4

T2 sequence (Q14957 20-1233, other chains not shown): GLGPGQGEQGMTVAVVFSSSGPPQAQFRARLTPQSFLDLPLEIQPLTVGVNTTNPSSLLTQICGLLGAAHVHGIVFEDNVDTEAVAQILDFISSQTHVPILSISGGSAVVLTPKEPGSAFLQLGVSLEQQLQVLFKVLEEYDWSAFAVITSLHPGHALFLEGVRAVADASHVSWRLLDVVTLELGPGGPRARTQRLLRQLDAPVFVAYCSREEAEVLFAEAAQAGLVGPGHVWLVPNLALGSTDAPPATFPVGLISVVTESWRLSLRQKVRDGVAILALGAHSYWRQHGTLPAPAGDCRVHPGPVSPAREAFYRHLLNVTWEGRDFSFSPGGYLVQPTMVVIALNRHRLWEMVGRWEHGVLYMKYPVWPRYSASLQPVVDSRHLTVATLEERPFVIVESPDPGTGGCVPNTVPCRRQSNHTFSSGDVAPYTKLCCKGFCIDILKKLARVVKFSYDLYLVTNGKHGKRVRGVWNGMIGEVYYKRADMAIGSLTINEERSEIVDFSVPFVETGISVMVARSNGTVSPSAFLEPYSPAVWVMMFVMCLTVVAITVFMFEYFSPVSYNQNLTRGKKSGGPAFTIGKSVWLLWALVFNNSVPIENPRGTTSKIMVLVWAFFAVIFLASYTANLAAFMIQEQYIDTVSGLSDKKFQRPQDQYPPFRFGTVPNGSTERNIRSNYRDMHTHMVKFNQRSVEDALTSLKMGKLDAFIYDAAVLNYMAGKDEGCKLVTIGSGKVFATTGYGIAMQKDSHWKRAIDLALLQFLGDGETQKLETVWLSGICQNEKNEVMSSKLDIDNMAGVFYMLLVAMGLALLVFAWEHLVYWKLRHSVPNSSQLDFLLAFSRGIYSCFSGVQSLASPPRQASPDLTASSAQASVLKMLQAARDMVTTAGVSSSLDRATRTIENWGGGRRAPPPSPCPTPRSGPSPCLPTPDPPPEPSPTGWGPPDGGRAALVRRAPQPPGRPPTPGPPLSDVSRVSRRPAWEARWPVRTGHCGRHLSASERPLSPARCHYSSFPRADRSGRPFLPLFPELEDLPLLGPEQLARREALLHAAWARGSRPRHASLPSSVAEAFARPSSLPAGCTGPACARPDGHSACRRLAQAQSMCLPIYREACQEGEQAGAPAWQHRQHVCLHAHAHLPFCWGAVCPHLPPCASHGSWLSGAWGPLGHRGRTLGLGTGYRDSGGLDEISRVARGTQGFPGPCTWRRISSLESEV
T3 sequence (Q13224 27-1484, other chains not shown): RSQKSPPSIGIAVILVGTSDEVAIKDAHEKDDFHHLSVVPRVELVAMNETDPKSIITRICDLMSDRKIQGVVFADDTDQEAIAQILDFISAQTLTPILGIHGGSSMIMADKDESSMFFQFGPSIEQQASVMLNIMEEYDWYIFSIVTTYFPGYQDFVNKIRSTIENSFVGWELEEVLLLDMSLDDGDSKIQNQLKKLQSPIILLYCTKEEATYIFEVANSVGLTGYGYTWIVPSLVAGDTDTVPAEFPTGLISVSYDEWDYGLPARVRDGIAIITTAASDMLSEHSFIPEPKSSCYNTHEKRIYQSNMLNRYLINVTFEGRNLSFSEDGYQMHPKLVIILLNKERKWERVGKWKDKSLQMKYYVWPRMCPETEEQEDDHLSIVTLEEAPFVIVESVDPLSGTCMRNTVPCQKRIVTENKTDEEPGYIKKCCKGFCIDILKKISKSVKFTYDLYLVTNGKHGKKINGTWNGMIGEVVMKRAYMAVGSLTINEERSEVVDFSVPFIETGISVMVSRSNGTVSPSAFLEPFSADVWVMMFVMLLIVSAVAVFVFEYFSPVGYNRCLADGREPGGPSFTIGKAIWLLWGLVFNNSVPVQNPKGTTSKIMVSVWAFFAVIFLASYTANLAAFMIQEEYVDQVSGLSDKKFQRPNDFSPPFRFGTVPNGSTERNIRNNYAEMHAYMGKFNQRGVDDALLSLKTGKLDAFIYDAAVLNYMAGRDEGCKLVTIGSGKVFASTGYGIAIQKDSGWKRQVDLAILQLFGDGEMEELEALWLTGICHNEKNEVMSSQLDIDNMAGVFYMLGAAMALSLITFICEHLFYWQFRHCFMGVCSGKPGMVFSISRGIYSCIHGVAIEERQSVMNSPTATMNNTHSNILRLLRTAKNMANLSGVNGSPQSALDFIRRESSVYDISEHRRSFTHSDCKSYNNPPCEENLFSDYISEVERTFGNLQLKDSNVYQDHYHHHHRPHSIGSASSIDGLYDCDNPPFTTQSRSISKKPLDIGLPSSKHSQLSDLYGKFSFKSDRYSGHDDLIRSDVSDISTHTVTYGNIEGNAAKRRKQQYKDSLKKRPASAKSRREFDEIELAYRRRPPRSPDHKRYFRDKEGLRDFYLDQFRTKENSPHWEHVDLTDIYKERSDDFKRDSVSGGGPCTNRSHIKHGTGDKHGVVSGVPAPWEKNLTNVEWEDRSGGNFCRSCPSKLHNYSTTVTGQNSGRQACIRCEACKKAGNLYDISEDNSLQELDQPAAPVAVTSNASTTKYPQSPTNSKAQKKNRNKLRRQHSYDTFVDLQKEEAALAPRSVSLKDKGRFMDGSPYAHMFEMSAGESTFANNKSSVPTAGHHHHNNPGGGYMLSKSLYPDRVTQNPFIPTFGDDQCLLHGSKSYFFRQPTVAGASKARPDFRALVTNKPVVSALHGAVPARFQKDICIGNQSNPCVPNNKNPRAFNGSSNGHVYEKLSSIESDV
T4 sequence (Q12879 23-1464, other chains not shown): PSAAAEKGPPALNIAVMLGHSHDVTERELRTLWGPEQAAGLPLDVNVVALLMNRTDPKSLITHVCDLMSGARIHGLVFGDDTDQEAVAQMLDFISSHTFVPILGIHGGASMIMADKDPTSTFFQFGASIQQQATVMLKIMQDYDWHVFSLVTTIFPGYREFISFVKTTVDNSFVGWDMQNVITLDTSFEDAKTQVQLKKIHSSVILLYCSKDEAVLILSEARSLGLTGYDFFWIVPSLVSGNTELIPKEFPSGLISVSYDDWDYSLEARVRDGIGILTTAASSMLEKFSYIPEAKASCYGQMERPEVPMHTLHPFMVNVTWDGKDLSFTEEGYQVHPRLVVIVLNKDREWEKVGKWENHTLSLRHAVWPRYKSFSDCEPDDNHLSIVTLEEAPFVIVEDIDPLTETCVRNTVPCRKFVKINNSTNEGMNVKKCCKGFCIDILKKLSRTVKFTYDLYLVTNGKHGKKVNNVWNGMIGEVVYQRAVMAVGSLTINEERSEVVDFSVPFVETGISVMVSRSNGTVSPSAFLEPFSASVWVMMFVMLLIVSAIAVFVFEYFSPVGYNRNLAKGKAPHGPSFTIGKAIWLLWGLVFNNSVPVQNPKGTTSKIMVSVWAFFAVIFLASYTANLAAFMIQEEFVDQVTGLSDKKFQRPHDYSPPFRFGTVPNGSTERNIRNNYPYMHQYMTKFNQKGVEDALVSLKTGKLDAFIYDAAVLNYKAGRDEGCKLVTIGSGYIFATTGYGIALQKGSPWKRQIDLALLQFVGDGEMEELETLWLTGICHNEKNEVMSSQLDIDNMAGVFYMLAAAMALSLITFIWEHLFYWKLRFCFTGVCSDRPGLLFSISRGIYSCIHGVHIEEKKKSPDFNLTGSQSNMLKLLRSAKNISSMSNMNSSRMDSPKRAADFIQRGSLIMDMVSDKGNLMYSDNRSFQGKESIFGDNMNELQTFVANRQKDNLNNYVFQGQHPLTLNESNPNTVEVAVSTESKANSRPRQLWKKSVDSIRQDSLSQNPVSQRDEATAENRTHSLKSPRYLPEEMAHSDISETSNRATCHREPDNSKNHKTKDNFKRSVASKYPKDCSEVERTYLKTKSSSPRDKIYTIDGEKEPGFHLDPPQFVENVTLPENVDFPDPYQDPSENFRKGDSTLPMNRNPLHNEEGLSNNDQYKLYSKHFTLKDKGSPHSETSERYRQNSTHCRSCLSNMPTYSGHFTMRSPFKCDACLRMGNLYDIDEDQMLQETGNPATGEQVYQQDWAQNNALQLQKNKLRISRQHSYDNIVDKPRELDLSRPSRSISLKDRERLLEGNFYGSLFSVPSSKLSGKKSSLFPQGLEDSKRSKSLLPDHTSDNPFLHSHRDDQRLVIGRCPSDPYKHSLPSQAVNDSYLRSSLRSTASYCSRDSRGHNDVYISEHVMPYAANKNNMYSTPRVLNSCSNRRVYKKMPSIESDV

In the case of `CC(C)CN1[C@@]2(CC[C@@]13CNC3=O)CNC2=O` [Compound AD, 5-isobutyl-2,5,8-triazadispiro[3.1.36.24]undecane-1,7-dione], the “Max Effect (mean number of 50 kHz USVs per 15 seconds)” value [1] is reported as “** (**: 11-16.9)”, the “CSF Cmax” value ([2]; CSF) is reported as 1965.2 ng/mL and the “Brain Cmax” value ([2]; brain) is reported as 1143.2 ng/mL. The AUC(0-t) ([2]; rat, plasma, po) was 19300 ng·h/mL, the bioavailability ([2]; rat, plasma, po) was 82% and the Tmax ([2]; rat, plasma, po, normal saline, read-out: Tmax) was 19.8 min. For the same compound, the Cmax ([2]; rat, po, plasma, read-out: Cmax) was 8560 ng/mL, the “Plasma (Human): percent of compound remaining after 60 minutes” value [3] was 83% and the “Plasma (Rat): percent of compound remaining after 60 minutes” value [4] was 88%. For the same compound, the “Microsomal (Rat): percent of compound remaining after 60 minutes” value [5] was 100%, the EC50 ([6]; NMDAR2D: log EC50, 50 μM glutamate, [3H]MK-801 binding) was > 100 nM and the Emax ([6]; read-out: NMDAR2D: % maximal [3H]MK-801 binding relative to 1 mM glycine) was 0%. The EC50 ([7]; NMDAR2C: log EC50, 50 μM glutamate, [3H]MK-801 binding) was < 1 nM, the Emax ([7]; read-out: NMDAR2C: % maximal [3H]MK-801 binding relative to 1 mM glycine) was < 100% and the “Microsomal (Human): percent of compound remaining after 60 minutes” value [8] was 100%. For the same compound, the EC50 ([9]; NMDAR2B: log EC50, 50 μM glutamate, [3H]MK-801 binding) was < 1 nM, the Emax ([9]; read-out: NMDAR2B: % maximal [3H]MK-801 binding relative to 1 mM glycine, 50 μM glutamate, relative to 1 mM glycine) was < 100% and the AUC(0-t) [10] was 4710 ng·h/mL. It also gave a clearance [10] of 7.01 mL/min/kg, a half-life [10] of 136 min and a C0 ([10]; read-out: C0) of 2800 ng/mL. The Vd ([10]; read-out: Vss) was 0.92 L/kg, the EC50 ([11]; NMDAR2A: log EC50, 50 μM glutamate, [3H]MK-801 binding) was < 1 nM and the Emax ([11]; read-out: NMDAR2A: % maximal [3H]MK-801 binding relative to 1 mM glycine, 50 μM glutamate, relative to 1 mM glycine) was < 100%.
